Test results taken from ChEMBL document CHEMBL5154863, “Design and synthesis of quinolinium-based derivatives targeting FtsZ for antibacterial evaluation and mechanistic study” (Eur J Med Chem, 2022).

Experiments:
Assay type in all cases: functional
Settings in all cases: time 20-24 hrs
Enterococcus faecium [1] = assay: Antibacterial activity against Enterococcus faecium ATCC 49624 assessed as inhibition of bacterial growth incubated for 20 to 24 hrs by broth micro dilution method
Staphylococcus aureus [2] = assay: Antibacterial activity against Staphylococcus aureus ATCC 29213 assessed as inhibition of bacterial growth incubated for 20 to 24 hrs by broth micro dilution method
[3] = system: Staphylococcus epidermidis; assay: Antibacterial activity against Staphylococcus epidermidis ATCC 12228 assessed as inhibition of bacterial growth incubated for 20 to 24 hrs by broth micro dilution method
Staphylococcus aureus [4] = assay: Antibacterial activity against methicillin-resistant Staphylococcus aureus ATCC 43300 assessed as inhibition of bacterial growth incubated for 20 to 24 hrs by broth micro dilution method
Acinetobacter baumannii = assay: Antibacterial activity against multi-drug resistant Acinetobacter baumannii ATCC 19606 assessed as inhibition of bacterial growth incubated for 20 to 24 hrs by broth micro dilution method
Escherichia coli [5] = assay: Antibacterial activity against NDM-1 expressing Escherichia coli ATCC BAA2469 assessed as inhibition of bacterial growth incubated for 20 to 24 hrs by broth micro dilution method
Enterococcus faecium [6] = assay: Antibacterial activity against vancomycin-resistant Enterococcus faecium clinical isolate assessed as inhibition of bacterial growth incubated for 20 to 24 hrs by broth micro dilution method
Escherichia coli [7] = assay: Antibacterial activity against Escherichia coli ATCC 8739 assessed as inhibition of bacterial growth incubated for 20 to 24 hrs by broth micro dilution method
Enterococcus faecalis = assay: Antibacterial activity against Enterococcus faecalis ATCC 29212 assessed as inhibition of bacterial growth incubated for 20 to 24 hrs by broth micro dilution method
Bacillus subtilis = assay: Antibacterial activity against Bacillus subtilis CMCC (B) 63501 assessed as inhibition of bacterial growth incubated for 20 to 24 hrs by broth micro dilution method
Staphylococcus aureus [8] = assay: Antibacterial activity against methicillin-resistant Staphylococcus aureus ATCC BAA-1720 assessed as inhibition of bacterial growth incubated for 20 to 24 hrs by broth micro dilution method
Staphylococcus aureus [9] = assay: Antibacterial activity against methicillin-resistant Staphylococcus aureus ATCC 33592 assessed as inhibition of bacterial growth incubated for 20 to 24 hrs by broth micro dilution method
Enterococcus faecium [10] = assay: Antibacterial activity against vancomycin resistant Enterococcus faecium ATCC 700221 assessed as inhibition of bacterial growth incubated for 20 to 24 hrs by broth micro dilution method
Pseudomonas aeruginosa = assay: Antibacterial activity against […] Pseudomonas aeruginosa ATCC 27853 assessed as inhibition of bacterial growth incubated for 20 to 24 hrs by broth micro dilution method
Escherichia coli [11] = assay: Antibacterial activity against Escherichia coli ATCC 25922 assessed as inhibition of bacterial growth incubated for 20 to 24 hrs by broth micro dilution method
Klebsiella pneumoniae = assay: Antibacterial activity against NDM-1 expressing Klebsiella pneumoniae ATCC BAA 2470 assessed as inhibition of bacterial growth incubated for 20 to 24 hrs by broth micro dilution method
Staphylococcus aureus [12] = assay: Antibacterial activity against vancomycin-intermediate Staphylococcus aureus Mu50 assessed as inhibition of bacterial growth incubated for 20 to 24 hrs by broth micro dilution method

CCCNc1cc(/C=C/c2ccc(N(C)C)cc2)[n+](C)c2ccccc12.[I-]
MIC (Enterococcus faecium [1]): 16 µg/mL | MIC (Staphylococcus aureus [2]): 8 µg/mL | MIC [3]: 2 µg/mL | MIC (Staphylococcus aureus [4]): 8 µg/mL | MIC (Acinetobacter baumannii): > 64 µg/mL | MIC (Escherichia coli [5]): > 64 µg/mL | MIC (Enterococcus faecium [6]): 8 µg/mL | MIC (Escherichia coli [7]): > 64 µg/mL | MIC (Enterococcus faecalis): 4 µg/mL | MIC (Bacillus subtilis): 16 µg/mL | MIC (Staphylococcus aureus [8]): 4 µg/mL | MIC (Staphylococcus aureus [9]): 4 µg/mL | MIC (Enterococcus faecium [10]): 4 µg/mL | MIC (Pseudomonas aeruginosa): > 64 µg/mL | MIC (Escherichia coli [11]): 32 µg/mL | MIC (Klebsiella pneumoniae): > 64 µg/mL | MIC (Staphylococcus aureus [12]): 8 µg/mL
